Measured values as given in patent publication US20260109674A1, “ALLOSTERIC MODULATION OF MUSCARINIC ACETYLCHOLINE RECEPTOR EFFICACY” (The University of Toledo, priority 2022, published 2026).

Key:
[1] = tested on: wild-type zebrafish larvae; assay: Maximum tolerated concentration (MTC) determination in zebrafish larvae; format: in vivo, Danio rerio
[2] = target: T1, M1 muscarinic receptors expressed in CHO cells (Homo sapiens, UniProt P11229); assay: Full ACh dose-response curves of [3H]AA release fitted to the allosteric operational model; format: cell-based
T1 construct: expressed in transfected cells; host or cells: CHO (CHO-hM1, stably transfected)
T1 sequence (P11229 1-460): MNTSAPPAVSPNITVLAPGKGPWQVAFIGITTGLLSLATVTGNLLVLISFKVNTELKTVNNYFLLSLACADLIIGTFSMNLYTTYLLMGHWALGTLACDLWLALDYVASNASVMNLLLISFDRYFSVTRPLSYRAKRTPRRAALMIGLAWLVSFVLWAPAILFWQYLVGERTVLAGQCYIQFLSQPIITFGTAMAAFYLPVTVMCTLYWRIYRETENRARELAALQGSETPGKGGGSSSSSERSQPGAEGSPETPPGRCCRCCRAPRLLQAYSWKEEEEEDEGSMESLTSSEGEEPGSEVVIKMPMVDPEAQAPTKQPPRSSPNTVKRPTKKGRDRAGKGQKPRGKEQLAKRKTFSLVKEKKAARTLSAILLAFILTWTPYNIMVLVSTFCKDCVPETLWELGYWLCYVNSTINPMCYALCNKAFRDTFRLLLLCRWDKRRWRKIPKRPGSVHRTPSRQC
Method: Measurement of [^3H]AA release was performed. Stably transfected CHO-hM1 or CHO-hM3 cells were seeded on 24-well plates (Greiner Bio-One GmbH, Frickenhausen, Germany) at a density of 5.0×10^4 cells/well in 0.5 ml of F-12 medium. Cells were incubated until they attached (approximately 3 h), followed by the addition of [^3H]AA to a final concentration of 0.05 μCi of [^3H]AA per well. The cells were then grown for 16 to 20 h before the assay was performed. [^3H]AA release was measured in Eagle's basal medium with 20 mM HEPES and 2 mg/ml fatty acid-free bovine serum albumin (EM-BSA). Cells were rinsed twice with EM-BSA, followed by the addition of EM-BSA media containing experimental agents and incubated for 1 h at 37° C. The assay was terminated by aspiration of the media, and the amount of [^3H]AA released was determined by liquid scintillation counting (Beckman-Coulter LS6500).
Tabulated [^3H]AA release data are represented as a fraction of maximal release in the presence of 100 μM ACh or as the fraction of release elicited by the appropriate concentration of ACh alone, as indicated dose-response curves were normalized to the maximal response of ACh without allosteric ligand. Some response curves were analyzed using the empirical four-parameter equation: […]
where X is the log of the concentration of the ligand used, Y is the amount of response, C50 is the concentration of the ligand that produces 50% of the maximal effect, Top and Bottom are the top and bottom plateaus of the curve, respectively, and n is related to the Hill slope for the curve. In some cases, families of response curves were analyzed according to the allosteric operational model:
where EM is the maximal response; A is the concentration of ACh; B is the concentration of the allosteric ligand; τA and τB represent the intrinsic efficacies of A and B, respectively; KA and KB are the equilibrium dissociation constants of A and B, respectively; and α and β represent the cooperativities between A and B in terms of binding and activation, respectively. Curve-fitting was carried out with GraphPad Prism, version 5.0 or 6.0 (San Diego CA).

[3] = target: T1, M1 muscarinic receptors expressed in CHO cells; assay: [3H]-arachidonic acid release screen with and without ACh and modulator; format: cell-based
[4] = tested on: wild-type zebrafish larvae; assay: General locomotor assay in zebrafish larvae (locomotor activity, repetitive behaviors); format: in vivo, Danio rerio; details: compared with BQCA
[5] = best-fit parameter, allosteric operational model, with ACh

For COc1c(I)cc(CN2C(=O)C(=O)c3ccccc32)cc1I [Compound 8a, 1-(3,5-diiodo-4-methoxybenzyl)indoline-2,3-dione], the “Maximum Tolerated Concentration” value ([1]; after 24-hour exposure, Table 3) was 30 µM, the “Signs of toxicity (in words)” value ([1]; concentrations up to 30 μM, the highest concentration tested) was “did not produce any signs of toxicity” and the “Intrinsic Efficacy-B, τB” value ([2]; best-fit parameter, allosteric operational model, Em set to 2.0) was 0.174 ± 0.0289. The “Activation cooperativity, A-B, β” value [2, 5] was 3.26 ± 0.431, the “Binding cooperativity, A-B, α” value [2, 5] was 0.689 ± 0.241 and the “Affinity-B, KB” value ([2]; best-fit parameter, values given are logarithms (cf. logKA in footnote)) was −6.26 ± 0.152. For the same compound, the “Effect on ACh potency and efficacy in full ACh dose-response curves (in words)” value ([2]; modulator 10 μM) was “dramatically enhanced ACh efficacy”, the Kb ([2]; read-out: affinity for M1 muscarinic receptors (KB)) was 589 nM and the “Ratio of response of ACh with modulator to response of ACh alone, 0.1 μM ACh” value ([3]; 10 μM modulator, 0.1 μM ACh, Table 1) was 2.64 ± 0.10. For the same compound, the “Ratio of response of ACh with modulator to response of ACh alone, 100 μM ACh” value ([3]; 10 μM modulator, 100 μM ACh, Table 1) was 1.62 ± 0.06, the “Stimulation of [3H]AA release, No ACh (fraction of stimulation above the control)” value ([3]; 10 μM modulator, no ACh, Table 1) was 0.24 ± 0.04 and the “Modulation of ACh activity (in words)” value ([3]; [3H]AA release, modulator 10 μM) was “significant enhancement of ACh activity”. The “Intrinsic agonist activity (in words)” value ([3]; modulator 10 μM, without ACh) was “lacked intrinsic activity at the 10 μM concentration” and the “Concentration with significant effects on locomotor activity and repetitive behaviors” value [4] was 1 µM.
